For data set [1], the system named is TRPV1^+ neurons. Put plainly: Neonatal capsaicin treatment of diabetes-prone NOD mice: insulitis and diabetes development. It is filed as in vivo. An excerpt: Using immunofluorescence, it was observed that murine islets are associated with meshworks of TRPV1^+ fibers (FIG. 1a). TRPV1 was undetectable in endocrine islet cells by immunofluorescence (FIG. 1a, b) and by RT-PCR of purified NOD islets (FIG. 9). based on this evidence of islet innervation by TRPV1^+ primary afferent sensory neurons, we investigated their possible role in T1D pathogenesis, using neonatal treatment of diabetes-prone NOD mice with capsaicin to permanently remove these neurons (Caterina and Julius, 2001; Jancso et al., 1977). Two day-old NOD mice received capsaicin (50 mg/kg, s.c.) or vehicle (NOD^caps, NOD^ctrl). […] We confirmed the lack of TRPV1 expression in NOD^caps mice, using immunofluorescence (FIG. 1a, b, TRPV1 green), Western blots (8, 12 & 20 wk), and standard hot-plate testing in randomly selected 5-6 wk old or in diabetic animals (FIG. 1c).
(§1) NOD, NOD.scid, BDC2.5 TCR transgenic NOD mice (‘BDC2.5-NOD’), NOD-β2m^null, C57BL/6 (‘B6’), B6-TRPV1^null, NOR NOD×B6 Idd4 congenic mice (NOD.B6-(D11Nds1-D11Mit325)/DelJ) were obtained from the Jackson Laboratories (Bar Harbor, Me.) and maintained under approved protocols in our vivarium (NOD female diabetes incidence: 85-90%). […] Control mice (NOD^ctrl) received 20 μL vehicle (10% ethanol, 10% Tween, 80% saline). In adoptive transfer experiments, splenocytes from 4-6 diabetic NOD females were pooled and 10^7 cells/mouse were injected (100 μL i.v.) into irradiated (300 rad) 6- to 8 wk-old NOD.scid recipients. Diastix strips were used to screen for glucosuria (Bayer HealthCare), diabetes was confirmed by diabetic blood glucose measurements on 2 consecutive days (>13.8 mM/l; SureStep, Life Technologies Inc., Burnaby, British Columbia, Canada).
Frozen murine pancreas sections were fixed in 4% paraformaldehyde, blocked with 5% normal donkey serum (Jackson), and stained with polyclonal rat or goat antibodies against GFAP (Signet Pathology Systems, Dedham, Mass.), polyclonal rabbit anti-TRPV1 (Oncogene) or guinea-pig antibody against insulin (DAKO, Carpinteria, Calif.). Bound antibodies were detected with biotinylated donkey anti-guinea pig or rat IgG (1:200, Jackson), Streptavidin AlexaFluor 546 or 633 (1:300, Molecular Probes, Eugene, Oreg.), and FITC conjugated donkey anti-rabbit IgG (1:25, Jackson). […] TRPV1 staining was performed on snap-frozen sections of NOD female pancreas with an overnight incubation of primary antibody at 4° C. To score insulitis severity, pancreata were fixed in 10% buffered formalin for a minimum of 24 hr. Histological sections were stained with hematoxylin and eosin and three blinded observers scored at the following scale: 0, normal islet; 1, peri-insulitis or encroachment of <25% of the islet surface area; 2, infiltration of 25-50% of the islet surface area; 3, infiltration of >50% of the islet surface area (Winer et al., 2003). Spleen and lymph node cells were stained with either 2 nM PE-conjugated NRP-V7/H-2K^d or TUM/H-2K^d tetramers, the latter a negative control, in FACS buffer (1% v/v FBS, 0.1% w/v NaN3 in PBS) at 4° C. for 1 hr, followed by staining with FITC-conjugated anti-CD8 mAb (clone 53-6.7; […]) and PerCP-conjugated anti-B 220 Ab (clone RA6-3B2; […], both from BD Pharmingen). Tetramer positivity was analyzed on gated CD8+B220− cells and reported as percentage of cells binding the NRP-V7/H-2K^d tetramer minus the percentage of cells binding the negative control, TUM/H-2K^d tetramer.

The subject of data set [2] is TRPV1^+ neurons. Put plainly: Systemic and pancreatic T cell development and function in NOD^caps versus NOD^ctrl mice. It is filed as in vivo. How it is done: Delayed type hypersensitivity (DTH): […] Abdomens were shaved and 100 μl of the allergen were applied. 6 d later, the baseline thickness of right ears were measured by gauge before application of 10 μl 1% TNCB in oil or carrier only. Ear thickness was re-measured in sensitized and naïve animals 24 hr later. […] Calbiochem, San Diego, Calif.) were purchased, other antigens were previously generated and described (Winer et al., 2003). After 72 hrs, cultures were pulsed (1 μCi, [3H]thymidine/18 hrs) and counted by liquid scintillation. Lymph node assays were similar, but used 2×10^5 lymph node cells plus 2×10^5 irradiated (1,100 rad), syngeneic splenocytes/well. […] Bound antibodies were detected with biotinylated donkey anti-guinea pig or rat IgG (1:200, Jackson), Streptavidin AlexaFluor 546 or 633 (1:300, Molecular Probes, Eugene, Oreg.), and FITC conjugated donkey anti-rabbit IgG (1:25, Jackson). […] Histological sections were stained with hematoxylin and eosin and three blinded observers scored at the following scale: 0, normal islet; 1, peri-insulitis or encroachment of <25% of the islet surface area; 2, infiltration of 25-50% of the islet surface area; 3, infiltration of >50% of the islet surface area (Winer et al., 2003). […] Live events were collected based on forward- and side-scatter profiles on a FACScan flow cytometer (BD) and analyzed using FlowJo software (Stanford University).

The test system of a further data set is TRPV1^+ sensory neurons. Description: Glucose challenge and insulin tolerance after capsaicin removal of TRPV1^+ sensory neurons. It is filed as in vivo, NOD.scid / NOD mice.
From the text: We compared measures of β-cell function in untreated and in capsaicin treated NOD.scid mice, and in C57/BL6J (‘B6’) and B6.TRPV1^−/− mice, the latter with a normal complement of sensory afferent neurons but absent TRPV1 expression (Caterina et al., 2000). NOD.scid mice were used to ascertain absence of lymphoid islet infiltration in NOD experiments, CD1 mice provided controls (FIGS. 17A-17C).
as §1

For the next data set, the system named is TRPV1. Put plainly: Capsaicin-evoked Ca^2+ responses in dorsal root ganglion neurons. It is filed as cell-based, NOD and NOR mice. The note with it: NOD DRG neurons compared with NOR, p<0.05.
The test system of data set [3] is islet T cell infiltration. Put plainly: Intra-arterial pancreas injection of substance P in prediabetic NOD mice (insulitis). Type of data set: in vivo. How it is done:
(§2) Animals were anaesthetized with isoflurane and the aorta developed with minimal trauma to ligate above and below the celiac artery. A 32G needle was used to inject Evans Blue (3 mg/kg/100 μl; Sigma), substance P (2 nmol/100 μl; Sigma) or saline into the aorta just prior to the celiac branching. Ligations are released after closure of the injection site. For insulitis studies, pancreata from treated mice were obtained 48-72 hr after pancreas injection treatment and histology performed. In diabetes reversal experiments, newly diagnosed NOD female mice were treated with either saline or substance P and followed without exogenous insulin treatment.
Frozen murine pancreas sections were fixed in 4% paraformaldehyde, blocked with 5% normal donkey serum (Jackson), and stained with polyclonal rat or goat antibodies against GFAP (Signet Pathology Systems, Dedham, Mass.), polyclonal rabbit anti-TRPV1 (Oncogene) or guinea-pig antibody against insulin (DAKO, Carpinteria, Calif.). Bound antibodies were detected with biotinylated donkey anti-guinea pig or rat IgG (1:200, Jackson), Streptavidin AlexaFluor 546 or 633 (1:300, Molecular Probes, Eugene, Oreg.), and FITC conjugated donkey anti-rabbit IgG (1:25, Jackson). […] TRPV1 staining was performed on snap-frozen sections of NOD female pancreas with an overnight incubation of primary antibody at 4° C. […]

Data set [4] is described as follows: Diabetes reversal after pancreatic i.a. substance P in newly diabetic NOD mice. It is filed as in vivo. How it is done: as §2
The test system of data set [5] is activated CD4+ NOD T cells. Put plainly: sP response of activated CD4+ NOD T cells in vitro (proliferation). Type of data set: cell-based, NOD mice. The procedure:
Splenocytes from 3- to 24 wk-old NOD females were cultured (4×10^5 cells/well) in AIM V serum-free medium (Life Technologies) containing antigen (0.002-50 μg/ml), baculovirus-derived human GAD65 (Diamyd Diagnostics, Stockholm, Sweden), human GFAP (>90% pure) and bovine S100b (>98% pure; Calbiochem, San Diego, Calif.) were purchased, other antigens were previously generated and described (Winer et al., 2003). After 72 hrs, cultures were pulsed (1 μCi, [3H]thymidine/18 hrs) and counted by liquid scintillation. Lymph node assays were similar, but used 2×10^5 lymph node cells plus 2×10^5 irradiated (1,100 rad), syngeneic splenocytes/well. To normalize pooled data, we calculated a stimulation index (SI, cpm antigen stimulated/medium control), background counts were <1500 cpm in spleen cell and <1000 cpm in lymph node cultures. In some proliferation studies, plate-bound anti-CD3 (0.001-3 μg/ml; BD PharMingen) and anti-CD28 (0.2 μg/ml; BD PharMingen) were used to stimulate CD4+ T-cells negatively selected from NOD β2m^null splenocytes in the presence of substance P.

Data set [6] relates to BDC2.5 T cell receptor transgenic T cells. Description: CFSE dye dilution in vivo clonal expansion of BDC2.5 T cells in pancreatic lymph nodes. The arrangement: species or system NOD mice. How it is done: For dye dilution in vivo clonal expansion studies, splenic CD4+ T-cells from NOD-BDC2.5 females were isolated by negative selection (Stemcell Technologies, Vancouver, Canada) and incubated with 2.5 μM CFSE (10′/37° C., Molecular Probes, Eugene, Oreg.) in PBS. Prediabetic (12 wk) NOD females pretreated 12 hr prior with substance P or saline, were injected i.v. with 3×10^6 CFSE-labeled CD4+ T-cells in sterile PBS.
Lymphocytes from thymus, pancreatic/axillary lymph nodes and spleen were stained with FITC, PE, and APC conjugated antibodies to CD3, CD4, CD8, CD44, CD25, CD69 CD62L and FoxP3 (BD Pharmingen, not all combinations are shown). NK-1R and Vβ4 antibodies were obtained from Novus Biologicals (Littleton, Colo.) and Cedarlane (Hornby, Canada), respectively. Live events were collected based on forward- and side-scatter profiles on a FACScan flow cytometer (BD) and analyzed using FlowJo software (Stanford University).

Setting [7] is: systemic (i.v.) injection of the same sP dose.
Where [8] appears, read: mice that failed to reverse hyperglycemia, i.a. sP.

The values below come from patent US7544365B2, “TRPV1+ sensory neurons control of β-cells stress and islet inflammation in diabetes” (priority 2006, dated 2009).

“Also recorded” adds a separate entry of the source.

Regarding `COc1cc(CNC(=O)CCCC/C=C/C(C)C)ccc1O` [capsaicin], in the data set with TRPV1^+ neurons [1] (50 mg/kg s.c. in 2 day-old mice), the “tolerability of neonatal capsaicin treatment” value is “viable, fertile, without abnormalities in growth or gross tissue structure, including pancreas; also recorded: no signs of adverse effects”. In addition, the “islets free of lymphocytes” value with TRPV1^+ neurons [1] (NOD^caps mice (capsaicin 50 mg/kg s.c. at 2 days old), by age 20 wk) is on record as “More than 70%”. Moreover, the “islet infiltrations compared with NOD^ctrl” value in the data set on TRPV1^+ neurons [1] (NOD^caps mice, p<0.0001) is on record as “significantly reduced”. Besides, the “reduction in final diabetes incidence” value in the data set with TRPV1^+ neurons [1] (neonatal capsaicin treatment, 35 wk plus next 12 wk, n=52 mice/group, p<0.0001) is on record as “about 80%”. In the data set on TRPV1^+ neurons [1] (neonatal capsaicin treatment, p=0.0002), the onset of diabetes result was “delayed the onset of diabetes”. Also, in the data set with TRPV1^+ neurons [1] (serial sectioning), the “fraction of NOD^caps mice in which infiltrated islets were entirely absent” value is given as “one third”. Further, the “regulatory T cell compartment in pancreatic lymph nodes” value in the data set on TRPV1^+ neurons [2] (NOD^caps mice, beyond 12-16 wk of age) is “maintained their regulatory T cell compartment”. Further, the “CD8+ and activated CD8+ CD69+ effector T lymphocytes in pancreatic lymph node tissue” value in the data set with TRPV1^+ neurons [2] (NOD^caps versus NOD^ctrl) was “significantly reduced proportions and absolute numbers”. The “serum glucose levels after i.p. glucose challenge” value in the data set on TRPV1^+ sensory neurons (10-12 wk old NOD.scid^caps versus NOD.scid^ctrl, p=0.004) is “significantly reduced”. Also, in the data set with TRPV1^+ sensory neurons (NOD.scid^caps versus NOD.scid^ctrl), the “insulin production after glucose challenge” value is listed as “significantly less insulin production”. Also, the “drug concentration required for maximum Ca^2+ response, NOD versus NOR DRG neurons” value in the data set with TRPV1 was 10 fold.
With substance P, in data set [3] (prediabetic NOD, 12 wk of age, within 2d after i.a. sP injection (2 nmoles/kg)), the “islets free of T cell infiltration” value is “about 80%”. Also, in data set [3] (setting [7]), the “effect on islet T cell infiltration, systemic injection” value is given as “did not have similar effects”. In addition, in data set [4] (setting [8]), the body weight result is reported as “preventing the progressive loss of body weight” and the “insulin sensitivity in non-responding mice” value is “improved insulin sensitivity”. Also, the “normalization of blood glucose levels” value in data set [4] (newly diabetic NOD mice, 2-3 d after diagnosis, pancreatic i.a. sP, without insulin therapy) was “over half of the i.a. injected diabetics normalized blood glucose levels”. In addition, the insulin sensitivity result in data set [4] (raising pancreatic sP levels, diabetic NOD mice) is on record as “dramatically enhanced insulin sensitivity”. The “time fasting blood glucose remained at near normal levels” value in data set [4] (responding mice) is 2-8 wk. Besides, the “cell proliferation and survival” value in data set [5] was “abrogated cell proliferation and survival in a dose-dependent fashion”. Besides, in data set [6] (cells in vitro pretreated with sP overnight, p=0.0045), the “expansion in pancreatic lymph nodes of BDC2.5 cells pretreated in vitro” value is “reduced the ability of these cells to expand in pancreatic lymph nodes”. Besides, the “cellularity and clonal expansion of BDC2.5 T cells in pancreatic lymph nodes” value in data set [6] (pancreatic i.a. sP 12-16 hr before transfer, analyzed 4 days later, dye dilution, p=0.003) is “reduced cellularity and clonal expansion”. Besides, in data set [6] (setting [7]), the “expansion of BDC2.5 T cells in pancreatic lymph nodes, systemic injection” value is recorded as “had no effect on expansion”.
